Values quoted from earlier work, collected in patent publication EP2221049A2, “SOLID PHARMACEUTICAL COMPOSITION OF DED ANOSINE” (Blanver Farmoquimica, LTDA, priority 2007, dated 2009).

Conditions: pH below 3, 37°C

SMILES: OC[C@@H]1CC[C@H](n2cnc3c(O)ncnc32)O1 [didanosine, 2',3'-dideoxyinosine]
- time period in which 10% of didanosine is decomposed to hypoxanthine: < 2 min
